Key:
[1] = tested on: fragments of bovine cartilage; experiment: In vitro inhibition of bovine cartilage catabolism (cartilage fragments stimulated with TNFα and oncostatin M, 21 days); format: cell-based; conditions: for percentage inhibition of the degradation of the proteins in the cartilage: D21; for percentage inhibition of the degradation of the GAGs: D21, DMB technique
Description: The study was carried out on fragments of bovine cartilage in culture medium (96-well plate), the degradation of which is stimulated by adding TNFα and oncostatin M (Schaller, S., Henriksen, K., Hoegh-Andersen, P., Sondergaard, B. C., Sumer, E. U., Tanko, L. B., Qvist, P., Karsdal, M. A. In vitro, ex vivo, and in vivo methodological approaches for studying therapeutic targets of osteoporosis and degenerative joint diseases: how biomarkers can assist? Assay. Drug Dev. Technol. 3, 553-580 (2005).
(§1) The duration of the cultivation period is 21 days (culture medium changed every 2 days). A group not treated with TNFα and oncostatin M constitutes the control group. Five lots of stimulated cartilage fragments were treated with the compound of Example 1, each at a different dose: 0.01; 0.1; 1; 3 and 10 mM. 5 replications were carried out for each dose.
On D19, the concentration of CTX II (fragment of type II collagen resulting from the degradation of that collagen by metalloproteases) in the culture medium is measured using an ELISA technique. That parameter is expressed in ng/ml/mg of cartilage.
On D21, the following are measured in the cartilage remaining at the end of cultivation: • the quantity of proteins, using the kit marketed by Biorad. For the groups treated with the compound of Example 1, the results of this parameter are expressed as the percentage inhibition of the degradation of the proteins in the cartilage of the untreated control group; • and the quantity of glycosaminoglycans (GAGs), using the […] (DMB). That parameter, too, is expressed as a percentage inhibition of the degradation of the GAGs evaluated in the control group after culturing for 21 days. Results

[2] = tested on: fragments of bovine cartilage; experiment: Alamar blue toxicity test in the bovine cartilage culture; format: cell-based; conditions: 21 days of cultivation, whatever the dose (0.01-10 mM)
Description: as §1
The treatment is moreover well tolerated by the cells for the 21 days of cultivation (toxicity test employed: Alamar blue—negative whatever the dose).

For `O=S(=O)([O-])CCCS(=O)(=O)[O-].[Sr+2]` [Example 1, Strontium 1,3-propanedisulphonate], the IC50 ([1]; D19, ELISA, TNFα + oncostatin M stimulated cartilage, significant (p<0.001), dose-dependent, read-out: inhibition of the salting out of CTX II in the culture medium (IC50)) was 3.5 mM, the “percentage inhibition of the degradation of the proteins in the cartilage” value (from here on “percentage inhibition … in the cartilage”) ([1]; dose 1 mM) was 22% and the “percentage inhibition of the degradation of the GAGs” value (shortened to “percentage inhibition … of the GAGs”) ([1]; dose 1 mM) was 4%. For the same molecule, the “percentage inhibition … in the cartilage” value ([1]; dose 3 mM) was 41%, the “percentage inhibition … of the GAGs” value ([1]; dose 3 mM) was 8% and the “percentage inhibition … of the GAGs” value ([1]; dose 10 mM, **p < 0.01) was 26%**. For the same molecule, the “percentage inhibition … in the cartilage” value ([1]; dose 10 mM, *p < 0.05) was 55%* and the “toxicity test Alamar blue (tolerance by the cells)” value [2] was “negative”.

From patent publication US7999009B2, “Strontium salts of sulphonic acids, a process for their preparation and pharmaceutical compositions containing them” (Les Laboratoires Servier, priority 2006, dated 2011)
